pIC50: −log10 of the molar value.
What follows are compounds tested against human NaV 1.8 (Homo sapiens, UniProt Q9Y5Y9) (assay: E-VIPR assay for detecting and measuring NaV inhibition properties). Conditions: E-VIPR assay conducted in the presence of human serum; HEK cells expressing truncated human NaV 1.8.
Assay type: cell-based
Outline: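 Membrane-potential (coumarin/oxonol) readout after 10 s of 10 Hz biphasic electrical stimulation on E-VIPR. Compounds: 11-point 3-fold dilutions, […], 0.625% DMSO, 30 min at room temperature, human serum optional. Cells: HEK expressing truncated human NaV1.8 co-transduced with KIR2.1.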

Sequence of human NaV 1.8 (Q9Y5Y9 whole entry, looked up, the tested form may be a part): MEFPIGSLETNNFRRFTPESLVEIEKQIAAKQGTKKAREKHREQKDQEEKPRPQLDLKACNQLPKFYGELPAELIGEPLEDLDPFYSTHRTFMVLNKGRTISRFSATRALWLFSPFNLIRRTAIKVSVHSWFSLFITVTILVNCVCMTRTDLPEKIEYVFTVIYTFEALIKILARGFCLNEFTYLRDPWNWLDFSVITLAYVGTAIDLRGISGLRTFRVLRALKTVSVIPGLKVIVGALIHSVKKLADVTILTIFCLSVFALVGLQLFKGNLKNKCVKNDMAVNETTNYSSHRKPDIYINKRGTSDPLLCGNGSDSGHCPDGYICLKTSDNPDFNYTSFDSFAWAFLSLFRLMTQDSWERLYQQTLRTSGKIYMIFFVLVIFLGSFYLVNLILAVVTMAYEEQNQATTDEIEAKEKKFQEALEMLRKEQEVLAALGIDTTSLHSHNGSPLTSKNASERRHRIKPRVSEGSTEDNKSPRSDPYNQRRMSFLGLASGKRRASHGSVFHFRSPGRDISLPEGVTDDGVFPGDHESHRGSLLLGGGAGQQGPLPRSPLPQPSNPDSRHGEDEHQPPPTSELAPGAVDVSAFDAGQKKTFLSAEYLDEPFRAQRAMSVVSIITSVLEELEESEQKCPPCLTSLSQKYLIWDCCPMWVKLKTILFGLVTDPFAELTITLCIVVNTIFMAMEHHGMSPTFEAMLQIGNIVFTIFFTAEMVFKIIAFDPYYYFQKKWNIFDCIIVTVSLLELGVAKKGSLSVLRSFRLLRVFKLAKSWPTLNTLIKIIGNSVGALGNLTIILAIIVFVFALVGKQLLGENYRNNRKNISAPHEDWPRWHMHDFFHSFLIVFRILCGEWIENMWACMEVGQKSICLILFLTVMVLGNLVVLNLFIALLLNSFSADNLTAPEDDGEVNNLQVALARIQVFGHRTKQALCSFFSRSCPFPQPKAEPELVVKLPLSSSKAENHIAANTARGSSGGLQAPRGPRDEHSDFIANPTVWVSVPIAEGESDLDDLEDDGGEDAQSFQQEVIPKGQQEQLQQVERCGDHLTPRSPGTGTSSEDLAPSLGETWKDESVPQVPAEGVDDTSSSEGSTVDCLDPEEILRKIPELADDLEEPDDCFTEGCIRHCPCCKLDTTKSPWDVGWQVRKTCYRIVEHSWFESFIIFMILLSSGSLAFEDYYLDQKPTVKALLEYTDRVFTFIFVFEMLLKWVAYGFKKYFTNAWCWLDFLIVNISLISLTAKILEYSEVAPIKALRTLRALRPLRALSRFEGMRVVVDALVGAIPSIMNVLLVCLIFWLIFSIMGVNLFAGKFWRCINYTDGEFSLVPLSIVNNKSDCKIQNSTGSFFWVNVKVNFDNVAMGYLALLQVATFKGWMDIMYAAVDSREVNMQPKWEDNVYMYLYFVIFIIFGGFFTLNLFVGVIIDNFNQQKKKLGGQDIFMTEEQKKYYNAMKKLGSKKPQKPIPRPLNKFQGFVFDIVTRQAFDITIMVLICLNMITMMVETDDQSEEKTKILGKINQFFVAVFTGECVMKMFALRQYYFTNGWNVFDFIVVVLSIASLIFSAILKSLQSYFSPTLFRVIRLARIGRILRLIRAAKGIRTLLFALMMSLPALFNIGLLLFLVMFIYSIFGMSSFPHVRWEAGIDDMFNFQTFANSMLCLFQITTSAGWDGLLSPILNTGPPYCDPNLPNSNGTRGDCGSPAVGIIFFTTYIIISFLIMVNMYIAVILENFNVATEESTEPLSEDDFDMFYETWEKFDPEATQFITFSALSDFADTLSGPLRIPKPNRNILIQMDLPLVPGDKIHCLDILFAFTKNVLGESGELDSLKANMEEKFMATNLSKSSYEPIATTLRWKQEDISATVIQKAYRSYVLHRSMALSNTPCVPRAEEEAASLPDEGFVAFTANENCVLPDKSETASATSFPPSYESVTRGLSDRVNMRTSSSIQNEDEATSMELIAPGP

Row | SMILES | pIC50
1 | Cc1c(Oc2ccc(C(F)(F)F)c(C)c2C(=O)Nc2ccc(C(N)=O)nc2)ccc(OC(F)(F)F)c1F [Compound 289, 5-[[6-[3-Fluoro-2-Methyl-4-(Trifluoromethoxy)Phenoxy]-2-Methyl-3-(Trifluoromethyl)Benzoyl]Amino]Pyridine-2-Carboxamide] | 7.41

Same assay, conditions: E-VIPR assay conducted in the presence of human serum; HEK cells expressing truncated human NaV 1.8; read-out: IC50

Row | SMILES | pIC50
2 | [2H]C([2H])([2H])Oc1cc(OC(F)(F)F)ccc1Oc1cc(C(F)(F)F)cnc1C(=O)Nc1ccc(C(N)=O)nc1 [Compound 174, N-(6-carbamoyl-3-pyridyl)-3-[2-(trideuteriomethoxy)-4-(trifluoromethoxy)phenoxy]-5-(trifluoromethyl)pyridine-2-carboxamide] | < 5.52
3 | NC(=O)c1ccc(NC(=O)c2c(Oc3ccc(F)c(F)c3F)ccc(C(F)(F)F)c2F)cn1 [Compound 215, 5-[[2-fluoro-3-(trifluoromethyl)-6-(2,3,4-trifluorophenoxy)benzoyl]amino]pyridine-2-carboxamide] | 6.24
4 | NC(=O)c1cc(NC(=O)c2cc(C(F)(F)F)ccc2Oc2ccc(F)cc2F)ccn1 [Compound 17, 4-[[2-(2,4-difluorophenoxy)-5-(trifluoromethyl)benzoyl]amino]pyridine-2-carboxamide] | < 5.52
5 | CC(C)Oc1ccc(Oc2ccc(C(F)(F)F)cc2C(=O)Nc2ccnc(C(N)=O)c2)cc1Cl [Compound 2, 4-[[2-(3-chloro-4-isopropoxy-phenoxy)-5-(trifluoromethyl)benzoyl]amino]pyridine-2-carboxamide] | 6.35
6 | COc1c(C(F)(F)F)ccc(Oc2ccccc2)c1C(=O)Nc1ccnc(C(N)=O)c1 [Compound 63, 4-[[2-methoxy-6-phenoxy-3-(trifluoromethyl)benzoyl]amino]pyridine-2-carboxamide] | 5.74
7 | COc1c(F)cccc1Oc1ccc(C(F)(F)F)c(F)c1C(=O)Nc1ccnc(C(N)=O)c1 [Compound 34, 4-[[2-fluoro-6-(3-fluoro-2-methoxy-phenoxy)-3-(trifluoromethyl)benzoyl]amino]pyridine-2-carboxamide] | 6.92
8 | COc1cc(OC(F)(F)F)ccc1Oc1cc(C2CCOC2)ccc1C(=O)Nc1ccnc(C(N)=O)c1 (centres unmarked) [Compound 1033] | 6.08
9 | COc1c(Oc2cc(C(F)(F)F)cc(C)c2C(=O)Nc2ccnc(C(N)=O)c2)ccc(F)c1F [Compound 189, 4-[[2-(3,4-difluoro-2-methoxy-phenoxy)-6-methyl-4-(trifluoromethyl)benzoyl]amino]pyridine-2-carboxamide] | 6.77
10 | Cc1c2c(cc(Oc3ccc(OC(F)(F)F)cc3Cl)c1C(=O)Nc1ccc(C(N)=O)nc1)OC(F)(F)O2 [Compound 240, 5-[[6-[2-chloro-4-(trifluoromethoxy)phenoxy]-2,2-difluoro-4-methyl-1,3-benzodioxole-5-carbonyl]amino]pyridine-2-carboxamide] | 6.24
11 | Cc1cc(Cl)cc(C)c1Oc1ccc(C(F)(F)F)c(C)c1C(=O)Nc1ccc(C(N)=O)nc1 [Compound 229, 5-[[6-(4-chloro-2,6-dimethyl-phenoxy)-2-methyl-3-(trifluoromethyl)benzoyl]amino]pyridine-2-carboxamide] | < 5.52
12 | NC(=O)c1ccc(NC(=O)c2c(Oc3ccc(OC(F)(F)F)c(Cl)c3)ccc(C(F)(F)F)c2F)cn1 [Compound 217, 5-[[6-[3-chloro-4-(trifluoromethoxy)phenoxy]-2-fluoro-3-(trifluoromethyl)benzoyl]amino]pyridine-2-carboxamide] | 6.80
13 | Cc1cc(Cl)cc(Cl)c1Oc1ccc(C(F)(F)F)c(F)c1C(=O)Nc1ccnc(C(N)=O)c1 [Compound 47, 4-[[6-(2,4-dichloro-6-methyl-phenoxy)-2-fluoro-3-(trifluoromethyl)benzoyl]amino]pyridine-2-carboxamide] | 5.85
14 | COc1c(Oc2cnc(C(F)(F)F)c(OC)c2C(=O)Nc2cc(C(N)=O)ncc2C)ccc(F)c1F [Compound 302, N-(2-carbamoyl-5-methyl-4-pyridyl)-5-(3,4-difluoro-2-methoxy-phenoxy)-3-methoxy-2-(trifluoromethyl)pyridine-4-carboxamide] | 6.55
15 | COc1cc(OC(F)(F)F)ccc1Oc1ccc(C(F)(F)F)c(OC2CC2)c1C(=O)Nc1ccnc(C(N)=O)c1 [Compound 85, 4-[[2-(cyclopropoxy)-6-[2-methoxy-4-(trifluoromethoxy)phenoxy]-3-(trifluoromethyl)benzoyl]amino]pyridine-2-carboxamide] | 6.74
16 | [2H]C([2H])([2H])Oc1cc(OC(F)(F)F)ccc1Oc1cc(C(F)(F)F)c(F)cc1C(=O)Nc1ccnc(C(N)=O)c1 [Compound 99, 4-[[5-fluoro-2-[2-(trideuteriomethoxy)-4-(trifluoromethoxy)phenoxy]-4-(trifluoromethyl)benzoyl]amino]pyridine-2-carboxamide] | 6.42
17 | Cc1c(C(F)(F)F)ccc(Oc2ccc(F)c(F)c2F)c1C(=O)Nc1ccc(C(N)=O)nc1 [Compound 225, 5-[[2-methyl-3-(trifluoromethyl)-6-(2,3,4-trifluorophenoxy)benzoyl]amino]pyridine-2-carboxamide] | 5.82
18 | [2H]C([2H])([2H])Oc1cc(OC(F)(F)F)ccc1Oc1cc2c(cc1C(=O)Nc1ccnc(C(N)=O)c1)OCCO2 [Compound 1036, 4-[[6-[2-(trideuteriomethoxy)-4-(trifluoromethoxy)phenoxy]-2,3-dihydro-1,4-benzodioxine-7-carbonyl]amino]pyridine-2-carboxamide] | 5.76

Results, then the compound that gave them:

Row | pIC50 | SMILES
19 | 7.59 | CC(C)Oc1ccc(Oc2ccc(C(F)(F)F)c(F)c2C(=O)Nc2ccnc(C(N)=O)c2)cc1 [Compound 37, 4-[[2-fluoro-6-(4-isopropoxyphenoxy)-3-(trifluoromethyl)benzoyl]amino]pyridine-2-carboxamide]
20 | 6.96 | COc1c(C(F)(F)F)ccc(Oc2ccc(OC(C)C)c(F)c2)c1C(=O)Nc1ccnc(C(N)=O)c1 [Compound 67, 4-[[6-(3-fluoro-4-isopropoxy-phenoxy)-2-methoxy-3-(trifluoromethyl)benzoyl]amino]pyridine-2-carboxamide]
21 | 7.90 | COc1c(Oc2ccc(C(F)(F)F)c(F)c2C(=O)Nc2cc(C(N)=O)ncn2)ccc(OC(F)(F)F)c1F [Compound 329, 6-[[2-fluoro-6-[3-fluoro-2-methoxy-4-(trifluoromethoxy)phenoxy]-3-(trifluoromethyl)benzoyl]amino]pyrimidine-4-carboxamide]
22 | 7.42 | COc1c(Oc2cc3c(c(F)c2C(=O)Nc2ccnc(C(N)=O)c2)OC(C)(C)CO3)ccc(OC(F)(F)F)c1F [Compound 1041, 4-(5-fluoro-7-(3-fluoro-2-methoxy-4-(trifluoromethoxy)phenoxy)-3,3-dimethyl-2,3-dihydrobenzo[b][1,4]dioxine-6-carboxamido)picolinamide]
23 | 8.70 | COc1cc(OC(F)(F)F)ccc1Oc1ccc(C(F)(F)F)c(Br)c1C(=O)Nc1ccnc(C(N)=O)c1 [Compound 194, 4-[[2-bromo-6-[2-methoxy-4-(trifluoromethoxy)phenoxy]-3-(trifluoromethyl)benzoyl]amino]pyridine-2-carboxamide]
24 | 7.20 | COc1c(C(F)(F)F)ccc(Oc2ccc(F)cc2C)c1C(=O)Nc1ccnc(C(N)=O)c1 [Compound 64, 4-[[6-(4-fluoro-2-methyl-phenoxy)-2-methoxy-3-(trifluoromethyl)benzoyl]amino]pyridine-2-carboxamide]
25 | 7.44 | Cc1cc(F)ccc1Oc1ccc(C(F)(F)F)c(F)c1C(=O)Nc1ccnc(C(N)=O)c1 [Compound 102, 4-[[2-fluoro-6-(4-fluoro-2-methyl-phenoxy)-3-(trifluoromethyl)benzoyl]amino]pyridine-2-carboxamide]
26 | 8.00 | NC(=O)c1cc(NC(=O)c2c(Oc3ccc(OC(F)(F)F)cc3C3CC3)ccc(C(F)(F)F)c2F)ccn1 [Compound 41, 4-[[6-[2-cyclopropyl-4-(trifluoromethoxy)phenoxy]-2-fluoro-3-(trifluoromethyl)benzoyl]amino]pyridine-2-carboxamide]
27 | 7.55 | COc1cc(OC(F)(F)F)ccc1Oc1ccc(Cl)c(F)c1C(=O)Nc1cc(C(N)=O)[n+]([O-])cc1C [Compound 268, 4-[[3-chloro-2-fluoro-6-[2-methoxy-4-(trifluoromethoxy)phenoxy]benzoyl]amino]-5-methyl-1-oxido-pyridin-1-ium-2-carboxamide]
28 | 8.40 | NC(=O)c1cc(NC(=O)c2c(Oc3ccc(OC(F)(F)F)cc3Cl)ccc(C(F)(F)F)c2Cl)ccn1 [Compound 192]
29 | 8.85 | COc1c(Oc2cc(Cl)c(C)c(F)c2C(=O)Nc2ccnc(C(N)=O)c2)ccc(OC(F)(F)F)c1F [Compound 309, 4-[[4-chloro-2-fluoro-6-[3-fluoro-2-methoxy-4-(trifluoromethoxy)phenoxy]-3-methyl-benzoyl]amino]pyridine-2-carboxamide]
30 | 8.05 | COc1c(Oc2ccc(C(F)(F)F)c(F)c2C(=O)Nc2ccnc(C(N)=O)c2)ccc(F)c1F [Compound 31, 4-[[6-(3,4-difluoro-2-methoxy-phenoxy)-2-fluoro-3-(trifluoromethyl)benzoyl]amino]pyridine-2-carboxamide]
31 | 7.23 | CNC(=O)c1cc(NC(=O)c2c(Oc3ccc(OC(F)(F)F)cc3OC)cnc(C(F)(F)F)c2OC)ccn1 [Compound 273, 3-methoxy-5-[2-methoxy-4-(trifluoromethoxy)phenoxy]-N-[2-(methylcarbamoyl)-4-pyridyl]-2-(trifluoromethyl)pyridine-4-carboxamide]
32 | 7.74 | COc1cc(OC(F)(F)F)ccc1Oc1cc(C2CCC(C(F)(F)F)CC2)cc(F)c1C(=O)Nc1ccnc(C(N)=O)c1 (single isomer, unassigned) [168 (first diastereomer), 4-[[2-fluoro-6-[2-methoxy-4-(trifluoromethoxy)phenoxy]-4-[4-(trifluoromethyl)cyclohexyl]benzoyl]amino]pyridine-2-carboxamide]

Reference: patent US12441703B2, “Carboxamides as modulators of sodium channels” (VERTEX PHARMACEUTICALS INCORPORATED, priority 2019, dated 2025)
